Results taken from ChEMBL document CHEMBL1201862, “PubChem BioAssay data set” (2004).
Values belong to the molecule of their own block, whether it stands above or below them. Calls of active or inactive are those of the source. Cut-off read from the data, not from the text of the source, for most assays here: actives have a measured IC50 and inactives only a lower limit.

Experiments:
[1] = target: T1, Protein disulfide-isomerase (Homo sapiens, UniProt P07237); experiment: inhibition of PDI-driven insulin aggregation – biochemical, turbidity, absorbance, cherry-picked samples, dose response (AID 602350); assay type: functional
T1 sequence (P07237 whole entry): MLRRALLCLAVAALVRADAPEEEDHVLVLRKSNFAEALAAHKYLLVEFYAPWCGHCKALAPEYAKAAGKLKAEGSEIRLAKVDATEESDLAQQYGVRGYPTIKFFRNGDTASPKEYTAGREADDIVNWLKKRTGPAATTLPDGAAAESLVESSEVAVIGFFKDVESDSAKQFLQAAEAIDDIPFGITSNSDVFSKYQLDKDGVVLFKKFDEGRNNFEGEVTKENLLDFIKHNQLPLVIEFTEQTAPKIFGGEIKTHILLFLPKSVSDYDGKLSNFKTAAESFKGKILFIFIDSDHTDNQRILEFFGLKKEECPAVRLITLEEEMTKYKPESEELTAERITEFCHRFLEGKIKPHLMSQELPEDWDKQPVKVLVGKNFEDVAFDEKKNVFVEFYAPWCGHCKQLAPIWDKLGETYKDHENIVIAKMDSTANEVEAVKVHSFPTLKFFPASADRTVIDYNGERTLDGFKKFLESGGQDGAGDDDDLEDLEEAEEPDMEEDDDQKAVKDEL

[2] = target: T1, Protein disulfide-isomerase; experiment: inhibition of PDI-mediated insulin reduction – biochemical, turbidity, absorbance, cherry-picked samples, set 2, dose response (AID 624274); assay type: functional
Candida albicans [3] = experiment: fluconazole-resistant Candida strain growth inhibitors – CaCi-8 strain, dry powder, set 4, dose response (AID 488950); assay type: functional, organism-based
Candida albicans [4] = experiment: C. albicans growth inhibition with fluconazole – CaCi-2 strain, Alamar Blue, dry powder, set 4, dose response (AID 488943); assay type: functional, organism-based
NIH3T3 = experiment: mammalian cell viability counter-check – Alamar Blue, fluconazole, dry powder, cytotoxicity control for antifungal drug resistance project, dose response (AID 488809); assay type: functional, cell-based; details: Mus musculus
Candida albicans [5] = experiment: antifungal activity against resistant Candida strain – CaCi-8, fluconazole, Alamar Blue, dry powder, dose response (AID 488807); assay type: functional, organism-based
Candida albicans [6] = experiment: Candida growth effect without fluconazole – C. albicans CaCi-2, dry powder, counter-screen for antifungal drug resistance project, dose response (AID 488802); assay type: functional, organism-based
[7] = target: T2, Sentrin-specific protease 7 (Homo sapiens, UniProt Q9BQF6); experiment: inhibition of human SENP7 cleavage activity – biochemical, luminescence, set 2, SAR follow-up (AID 588600); assay type: functional
T2 sequence (Q9BQF6 whole entry): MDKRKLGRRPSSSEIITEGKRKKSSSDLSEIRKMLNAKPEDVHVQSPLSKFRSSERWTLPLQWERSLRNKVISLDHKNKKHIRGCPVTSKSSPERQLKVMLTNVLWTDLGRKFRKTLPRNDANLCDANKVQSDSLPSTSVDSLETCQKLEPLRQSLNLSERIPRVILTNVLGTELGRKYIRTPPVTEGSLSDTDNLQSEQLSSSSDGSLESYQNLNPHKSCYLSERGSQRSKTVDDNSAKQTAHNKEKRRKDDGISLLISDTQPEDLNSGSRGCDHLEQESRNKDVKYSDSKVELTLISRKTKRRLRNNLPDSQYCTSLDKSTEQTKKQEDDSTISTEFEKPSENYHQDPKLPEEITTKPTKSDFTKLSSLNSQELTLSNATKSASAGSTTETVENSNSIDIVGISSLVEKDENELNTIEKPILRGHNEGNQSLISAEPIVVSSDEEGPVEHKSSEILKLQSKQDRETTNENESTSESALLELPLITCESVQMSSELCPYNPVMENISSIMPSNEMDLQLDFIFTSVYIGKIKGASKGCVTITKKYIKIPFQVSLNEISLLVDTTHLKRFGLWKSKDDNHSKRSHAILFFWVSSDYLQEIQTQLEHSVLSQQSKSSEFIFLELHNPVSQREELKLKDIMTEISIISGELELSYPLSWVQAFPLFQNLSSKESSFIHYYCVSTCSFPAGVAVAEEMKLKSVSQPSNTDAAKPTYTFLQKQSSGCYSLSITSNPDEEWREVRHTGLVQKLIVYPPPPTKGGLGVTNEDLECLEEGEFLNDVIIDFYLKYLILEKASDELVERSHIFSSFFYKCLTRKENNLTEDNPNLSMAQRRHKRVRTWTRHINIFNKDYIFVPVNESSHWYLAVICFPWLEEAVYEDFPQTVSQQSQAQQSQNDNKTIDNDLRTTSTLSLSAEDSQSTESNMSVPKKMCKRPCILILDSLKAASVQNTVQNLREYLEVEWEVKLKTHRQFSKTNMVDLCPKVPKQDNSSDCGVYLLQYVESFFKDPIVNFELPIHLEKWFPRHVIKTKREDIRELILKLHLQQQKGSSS

Caspase-3 [8] = target: T3, Caspase-3 (Homo sapiens, UniProt P42574); experiment: inhibition of recombinant caspase-3 activity – biochemical, luminescence, set 2, selectivity assay for SENP protease inhibitor project, SAR follow-up (AID 588599); assay type: functional
T3 sequence (P42574 whole entry): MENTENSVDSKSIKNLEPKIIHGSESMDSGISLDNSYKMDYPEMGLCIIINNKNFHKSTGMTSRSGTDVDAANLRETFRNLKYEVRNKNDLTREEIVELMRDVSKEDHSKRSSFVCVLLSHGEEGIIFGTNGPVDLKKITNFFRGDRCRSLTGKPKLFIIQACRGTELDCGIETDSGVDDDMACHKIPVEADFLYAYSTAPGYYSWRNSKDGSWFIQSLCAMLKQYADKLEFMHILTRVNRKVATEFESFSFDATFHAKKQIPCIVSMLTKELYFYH

[9] = target: T4, Sentrin-specific protease 8 (Homo sapiens, UniProt Q96LD8); experiment: inhibition of sentrin protease 8 – biochemical, luminescence, set 2, SAR follow-up (AID 588601); assay type: functional
T4 sequence (Q96LD8 whole entry): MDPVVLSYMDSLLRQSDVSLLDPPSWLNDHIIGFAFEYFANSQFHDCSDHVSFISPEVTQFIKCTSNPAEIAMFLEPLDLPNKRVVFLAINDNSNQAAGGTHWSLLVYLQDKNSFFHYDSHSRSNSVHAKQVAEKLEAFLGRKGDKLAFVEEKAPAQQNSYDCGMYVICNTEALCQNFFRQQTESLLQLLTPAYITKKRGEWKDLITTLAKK

[10] = target: T2, Sentrin-specific protease 7; experiment: inhibition of human SENP7 cleavage activity – biochemical, luminescence, SAR follow-up (AID 504497); assay type: functional
[11] = target: T4, Sentrin-specific protease 8; experiment: inhibition of human SENP8 cleavage activity – biochemical, luminescence, SAR follow-up (AID 504501); assay type: functional
[12] = target: T5, Sentrin-specific protease 6 (Homo sapiens, UniProt Q9GZR1); experiment: inhibition of human SENP6 catalytic domain – biochemical, luminescence, set 2, SAR follow-up (AID 588598); assay type: functional
T5 sequence (Q9GZR1 whole entry): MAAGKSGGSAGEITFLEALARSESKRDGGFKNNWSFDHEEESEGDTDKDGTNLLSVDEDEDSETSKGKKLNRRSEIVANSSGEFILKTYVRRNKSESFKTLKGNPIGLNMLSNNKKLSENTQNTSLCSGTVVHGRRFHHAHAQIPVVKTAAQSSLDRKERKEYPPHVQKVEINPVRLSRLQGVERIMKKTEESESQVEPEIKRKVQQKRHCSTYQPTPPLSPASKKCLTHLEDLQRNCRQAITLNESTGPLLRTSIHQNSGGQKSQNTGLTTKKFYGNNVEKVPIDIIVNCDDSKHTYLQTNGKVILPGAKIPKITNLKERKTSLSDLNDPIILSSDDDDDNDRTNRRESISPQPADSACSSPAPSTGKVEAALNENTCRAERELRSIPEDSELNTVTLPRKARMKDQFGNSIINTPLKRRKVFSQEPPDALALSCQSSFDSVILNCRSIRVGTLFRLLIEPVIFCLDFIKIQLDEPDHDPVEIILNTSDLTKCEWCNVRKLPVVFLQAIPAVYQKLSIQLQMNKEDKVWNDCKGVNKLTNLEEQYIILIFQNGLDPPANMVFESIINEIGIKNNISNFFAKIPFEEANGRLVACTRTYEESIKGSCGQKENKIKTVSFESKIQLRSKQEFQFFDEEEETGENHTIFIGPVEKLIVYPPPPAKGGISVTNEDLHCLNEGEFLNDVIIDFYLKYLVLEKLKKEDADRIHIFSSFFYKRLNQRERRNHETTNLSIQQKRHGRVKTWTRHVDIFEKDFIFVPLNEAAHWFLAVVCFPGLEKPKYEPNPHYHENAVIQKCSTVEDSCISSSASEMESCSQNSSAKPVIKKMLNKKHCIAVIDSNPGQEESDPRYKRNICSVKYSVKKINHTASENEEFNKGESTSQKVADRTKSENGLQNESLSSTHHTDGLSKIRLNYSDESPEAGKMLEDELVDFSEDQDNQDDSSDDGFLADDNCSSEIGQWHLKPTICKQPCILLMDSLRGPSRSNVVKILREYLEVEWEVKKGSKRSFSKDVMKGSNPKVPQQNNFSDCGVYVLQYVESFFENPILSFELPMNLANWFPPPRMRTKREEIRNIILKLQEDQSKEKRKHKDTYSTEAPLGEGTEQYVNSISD

Caspase-3 [13] = target: T3, Caspase-3; experiment: SAR Analysis of small molecule inhibitors of Sentrin-specific proteases (SENPs) using a Caspase-3 Selectivity assay. [Related pubchem assays (depositor defined):AID2540, AID2599, AID434973, AID489001]; assay type: functional
[14] = target: T5, Sentrin-specific protease 6; experiment: SAR Analysis of small molecule inhibitors of Sentrin-specific protease 6 (SENP6) using a Luminescent assay. [Related pubchem assays (depositor defined):AID2582, AID2599]; assay type: functional

Structure (SMILES): CN(C)C1(c2nnnn2CCOC(=O)Nc2ccc(Cl)cc2)CCCCC1
AC50 [1]: < 9 nM (active) | AC50 [2]: 9 nM (active)

Structure (SMILES): O=C(c1ccc(Cl)c(Cl)c1)N1CCN(c2ccnc3cc(Cl)ccc23)CC1
AC50 (Candida albicans [3]): 515 nM (active) | AC50 (Candida albicans [4]): 726 nM (active) | AC50 (NIH3T3): 43600 nM (active) | AC50 (Candida albicans [5]): 1140 nM (active) | AC50 (Candida albicans [6]): 45200 nM (active)

IC50 [7]: 2710 nM (active) | IC50 (Caspase-3 [8]): 3600 nM (active) | IC50 [10]: 2800 nM (active) | IC50 [12]: 2120 nM (active) | IC50 (Caspase-3 [13]): 6900 nM (active) | IC50 [14]: 8400 nM (active)
Structure (SMILES): Oc1ccccc1-c1nc(/C=C/c2ccccc2)no1
IC50 [9]: 2540 nM (active) | IC50 [11]: 71000 nM (active)
